{"source": "patent US7807176B2", "about": "“Polypeptide promoting vascular endothelial cell growth” (Genomidea, Inc., priority 2004, dated 2010)", "key": {"[1]": {"tested_on": "insulin-like growth factor-1 (IGF-1) mRNA", "assay": "Growth factor mRNA expression level: IGF-1", "assay_type": "cell-based"}, "[2]": {"tested_on": "phosphatidyl inositol-3-kinase/Akt (PI3K/Akt)", "assay": "Effect on PI3K/Akt activity", "conditions": "data are not shown"}, "HEAC endothelial cells": {"tested_on": "HEAC endothelial cells", "assay": "Endothelial cell migration, modified Boyden chamber", "assay_type": "cell-based, human", "conditions": "for migration % Increase: 4 hours", "procedure": "A polyvinyl pyrrolidone (PVP)-free polycarbonate membrane having […] (Neuro Probe Inc., Gaithersburg, Md.) was coated overnight with 0.1% gelatin and then washed with phosphate buffered saline to remove an excess of the gelatin coating. Then, 28 μl growth factor-free EBM2 medium supplemented with 1% FBS was arranged in a lower chamber, and the membrane was arranged on the lower chamber. […] The Boyden chamber was incubated at 37° C. for 4 hours. After incubation, the membrane was removed and the cells on the upper side of the membrane were removed. The cells on the lower side of the membrane were stained with Diff-Quick (Sysmex, Hyogo Pref., JP). The cells in each of randomly selected 8 visual fields (×100) were counted."}, "tube formation": {"tested_on": "tube formation", "assay": "Tube formation, Kurabo Angiogenesis kit with CD31 staining and image quantification", "assay_type": "cell-based, human", "conditions": "for tube Area % Increase / tube Length % Increase: Table 2; for Area (% increase): Example 5, Table 4; for Length (% increase): Example 5, Table 5", "procedure": "Using a Kurabo Angiogenesis kit (KZ-1000, Kurabo Industries Ltd.), tube formation was examined. A blank, vascular endothelial growth factor-A protein (VEGF-A), pVEGF plasmid (plasmid containing a gene encoding vascular endothelial growth factor), and pSPORT1 (a plasmid not containing a gene encoding vascular endothelial growth factor) were used as controls. […]\nCulture was carried out at 37° C. in a 5% CO2 incubator. The medium was exchanged on the 4th, 7th and 9th days of culture with a fresh medium containing the same additives.\nCD31 (PECAM-1) staining primary antibody (mouse anti-human CD31 antibody) was diluted 4,000-fold with a blocking solution (Dulbecco's phosphate buffer solution (PBS(−)) containing 1% BSA). 0.5 ml of this primary antibody solution was added to each well and incubated for 60 minutes at 37° C. After incubation was finished, each well was washed 3 times with 1 ml blocking solution.\nThen, 0.5 ml of a secondary antibody (goat anti-mouse IgG/alkali phosphatase conjugate) solution, diluted 500-fold with the blocking solution, was added to each well and incubated for 60 minutes at 37° C., and each well was washed 3 times with 1 ml distilled water. Separately, 2 tablets of BCIP/NBT were dissolved in 20 ml distilled water and filtered through a filter with a pore size of 0.2 μm, to prepare a substrate solution. 0.5 ml of the prepared BCIP/NBT substrate solution was added to each well and incubated at 37° C. until the tube turned deep violet (usually in 5 to 10 minutes). After incubation was finished, each well was washed 3 times with 1 ml distilled water, followed by removing the washing solution using suction, and the plate was left to air-dry. After drying, each well was observed under a microscope.\nEach well was observed under a 40× magnification microscope and a photograph of each well was taken. An enlarged photograph with the scale of 1 mm magnified 40-fold was taken (FIG. 5).\nEach of the resulting images was quantified with angiogenesis quantification software (KSW-5000U, Kurabo Industries Ltd.) according to the following method. The area (left in FIG. 6) and length (right in FIG. 6) of tubes formed in each visual field were measured on the scale by computer analysis with various indicators. […]"}}, "note": "Entries after “also recorded” stand apart in the source; their conditions may differ."}
{"sequence": "MLSLIFLHRLKSMRKRLDRKLRFWHRKNYP (listed as Homo sapiens) [F2 peptide]", "values": [{"measurement": "IGF-1 mRNA Increased Amount [times]", "setting": "[1]; 24 hrs", "result": 46.2, "unit": "times"}, {"measurement": "IGF-1 mRNA Increased Amount [times]", "setting": "[1]; 48 hrs", "result": 97.9, "unit": "times"}, {"measurement": "IGF-1 mRNA Increased Amount [times]", "setting": "[1]; 72 hrs", "result": 243.8, "unit": "times"}, {"measurement": "effect on mRNA level of IGF-1 (in words)", "setting": "[1]; over 72 hours, FIG. 16", "result": "up-regulated the mRNA level of insulin-like growth factor-1 (IGF-1) potently and specifically in a time-dependent manner"}, {"measurement": "effect on PI3K/Akt activity", "setting": "[2]", "result": "did not have any direct effect"}, {"measurement": "migration % Increase", "setting": "HEAC endothelial cells; 10 ng/ml", "result": 88.5, "unit": "%"}, {"measurement": "migration % Increase", "setting": "HEAC endothelial cells; 100 ng/ml", "result": 102.5, "unit": "%"}, {"measurement": "migration % Increase", "setting": "HEAC endothelial cells; 1 μg/ml", "result": 129.8, "unit": "%"}, {"measurement": "cell migration activity (in words)", "setting": "HEAC endothelial cells; F2 0.01 to 1 μg/ml, control peptide 1 μg/ml, VEGF 50 ng/ml, FIG. 10", "result": "significantly increased in a concentration-dependent manner; also recorded: higher than that of VEGF (50 ng/ml)"}, {"measurement": "tube Area % Increase", "setting": "tube formation; 100 ng/ml", "result": 61, "unit": "%"}, {"measurement": "tube Length % Increase", "setting": "tube formation; 100 ng/ml", "result": 53, "unit": "%"}, {"measurement": "Area (% increase)", "setting": "tube formation; 1 μg/ml", "result": 41.8, "unit": "%"}, {"measurement": "Length (% increase)", "setting": "tube formation; 1 μg/ml", "result": 38.5, "unit": "%"}, {"measurement": "tube Area % Increase", "setting": "tube formation; 1 μg/ml", "result": 55, "unit": "%"}, {"measurement": "tube Length % Increase", "setting": "tube formation; 1 μg/ml", "result": 50, "unit": "%"}, {"measurement": "Area (% increase)", "setting": "tube formation; 10 μg/ml", "result": 131.4, "unit": "%"}, {"measurement": "Length (% increase)", "setting": "tube formation; 10 μg/ml", "result": 115.5, "unit": "%"}, {"measurement": "angiogenesis activity compared with LL-37 peptide (in words)", "setting": "tube formation; 10 μg/ml, FIG. 15", "result": "higher angiogenesis activity at a dose of 10 μg/ml than that of LL-37 peptide"}, {"measurement": "tube Area % Increase", "setting": "tube formation; 10 μg/ml", "result": 132, "unit": "%"}, {"measurement": "tube Length % Increase", "setting": "tube formation; 10 μg/ml", "result": 116, "unit": "%"}, {"measurement": "in vitro angiogenesis activity (in words)", "setting": "tube formation; F2 0.1, 1, 10 μg/ml versus VEGF 50 ng/ml and control peptide", "result": "larger blood vessels were formed; also recorded: stronger angiogenesis enhancing activity than that of VEGF"}]}
